Reference: US10350210B2, “EGFR and ALK dual inhibitor” (PRECEDO PHARMACEUTICALS CO., LTD, priority 2015, dated 2019)

Legend:
CHL = test: Cell growth (Cell Titer-Glo viability), CHL; type: cell-based, Chinese hamster; settings: Cricetulus griseus; CHL Chinese hamster lung cell, 72 hrs; read-out: GI50
PC-9 = test: Growth of cancer cells (Cell Titer-Glo viability), PC-9; type: cell-based; settings: Homo sapiens; PC-9 (EGFR delE746_A750 mutant), 72 hrs
Procedure, shortened: (§1)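 Cells are counted as viable by CellTiter-Glo chemiluminescence. Murine BaF3 lines depend on a stably transfected TEL-fused kinase after IL-3 withdrawal, and the NSCLC lines express mutant EGFR.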

BaF3-TEL-ALK = test: Cell growth (Cell Titer-Glo viability), BaF3-TEL-ALK; type: cell-based; settings: Mus musculus; BaF3-TEL-ALK (stably expressing ALK kinase), 72 hrs
Procedure, shortened: (§2)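 BaF3, TEL-kinase fusion, IL-3-free, transgene-driven growth; HCC827 = EGFR del19, NCI-H3255 = EGFR L858R. Viable cells via CellTiter-Glo, plate-reader luminescence.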

NCI-H2122 = test: Growth of cancer cells (Cell Titer-Glo viability), NCI-H2122; type: cell-based; settings: Homo sapiens; NCI-H2122 (wild-type EGFR), 72 hrs
CHO = test: Cell growth (Cell Titer-Glo viability), CHO; type: cell-based, Chinese hamster; settings: Cricetulus griseus; CHO Chinese hamster ovary cell, 72 hrs; read-out: GI50
NCI-H3122 = test: Growth of cancer cells (Cell Titer-Glo viability), NCI-H3122; type: cell-based; settings: Homo sapiens; NCI-H3122 (expressing ALK gene), 72 hrs; read-out: GI50
NCI-H1975 = test: Growth of cancer cells (Cell Titer-Glo viability), NCI-H1975; type: cell-based; settings: Homo sapiens; NCI-H1975 (EGFR L858R/T790M double mutant), 72 hrs
Procedure, shortened: as §1

NCI-H2228 = test: Growth of cancer cells (Cell Titer-Glo viability), NCI-H2228; type: cell-based; settings: Homo sapiens; NCI-H2228 (wild-type ALK), 72 hrs
BaF3-ALK-F1174L = test: Cell growth (Cell Titer-Glo viability), BaF3-ALK-F1174L; type: cell-based; settings: Mus musculus; BaF3-ALK-F1174L (mutant ALK F1174L kinase), 72 hrs
Procedure, shortened: as §2

BaF3-NPM-ALK = test: Cell growth (Cell Titer-Glo viability), BaF3-NPM-ALK; type: cell-based; settings: Mus musculus; BaF3-NPM-ALK (stably expressing ALK kinase), 72 hrs
A549 = test: Growth of cancer cells (Cell Titer-Glo viability), A549; type: cell-based; settings: Homo sapiens; A549 (wild-type EGFR), 72 hrs
BaF3-FL-EGFR-T790M-L858R = test: Cell growth (Cell Titer-Glo viability), BaF3-FL-EGFR-T790M-L858R; type: cell-based; settings: Mus musculus; BaF3-FL-EGFR-T790M-L858R (EGFR T790M/L858R mutant kinase), 72 hrs
Experimental: By testing the effect of the novel kinase inhibitors on the proliferation of cancer cells, the selectivity of the compounds of the present disclosure in inhibiting the proliferation of cancer cells was further assessed. […]
(§3) The number of viable cells was determined quantitatively by a microplate reader using Cell Titer-Glo® (Promega, US) chemiluminescence cell viability assay kit.

A431 = test: Growth of cancer cells (Cell Titer-Glo viability), A431; type: cell-based; settings: Homo sapiens, A-431; A431 (wild-type EGFR), 72 hrs; read-out: GI50
BaF3 = test: Cell growth (Cell Titer-Glo viability), BaF3; type: cell-based; settings: BaF3 mouse primary B cell, 72 hrs
HCC827 = test: Growth of cancer cells (Cell Titer-Glo viability), HCC827; type: cell-based; settings: Homo sapiens; HCC827 (mutant EGFR del19), 72 hrs
Procedure, shortened: as §2

NCI-H460 = test: Growth of cancer cells (Cell Titer-Glo viability), NCI-H460; type: cell-based; settings: Homo sapiens; NCI-H460 (wild-type EGFR), 72 hrs
Excerpt: (§4) By testing the effect of the novel kinase inhibitors on the proliferation of cancer cells, the selectivity of the compounds of the present disclosure in inhibiting the proliferation of cancer cells was further assessed. In this example, human non-small cell lung cancer cell NCI-H1975 (expressing EGFR L858R/T790M double mutant gene), human skin squamous carcinoma cell A431 (expressing wild-type EGFR gene), non-small cell lung cancer NCI-H3255 (expressing EGFR L858R mutant gene), non-small cell lung cancer cell NCI-H3122 (expressing ALK gene), human non-small cell lung cancer cell A549 (expressing wild-type EGFR gene), human non-small cell lung cancer cell NCI-H2122 (expressing wild-type EGFR gene), human non-small cell lung cancer cell NCI-H460 (expressing wild-type EGFR gene), human non-small cell lung cancer cell PC-9 (expressing EGFR delE746_A750 mutant gene), Chinese hamster ovary cell CHO (Cricetulus griseus, hamster, Chinese, ovary), Chinese hamster lung cell CHL, human non-small cell lung cancer cell HCC827 (expressing mutant EGFR del19 gene), human lung adenocarcinoma cell HCC4006 (expressing mutant EGFR del19 gene), human non-small cell lung cancer cell NCI-H2228 (expressing wild-type ALK gene), and mouse primary B cell BaF3 were used, and the above cells were all purchased from ATCC (US). In addition, mouse BaF3-TEL-ALK (stably expressing ALK kinase), mouse BaF3-ALK-F1174L (stably expressing mutant ALK F1174L kinase), mouse BaF3-NPM-ALK (stably expressing ALK kinase), mouse BaF3-TEL-EGFR (stably expressing EGFR kinase), mouse BaF3-TEL-EGFR-T790M (stably expressing EGFR T790M mutant kinase), mouse BaF3-FL-EGFR-Del19 (stably expressing EGFR delE746_A750 mutant kinase), mouse BaF3-TEL-EGFR-L858R (stably expressing EGFR L858R mutant kinase), mouse BaF3-FL-EGFR-T790M-L858R (stably expressing EGFR T790M/L858R mutant kinase), mouse BaF3-TEL-INSR (stably expressing INSR protein), mouse BaF3-TEL-IGF1R (stably expressing IGF1R Protein), mouse BaF3-EML4-ALK (stably expressing EML4-ALK Protein), mouse BaF3-TEL-JAK3 (stably expressing JAK3 kinase protein), mouse BaF3-TEL-CSF1R (stably expressing CSF1R protein), and mouse BaF3-TEL-ALK-F1196M (stably expressing ALK F1196M mutant kinase) were also used in this example. The above cell lines were all established by our laboratory via the following process: kinase proteins or protein domain sequences of human ALK, ALK F1174L, EGFR, EGFR T790M, EGFR delE746_A750, EGFR L858, EGFR T790M/L858R, INSR, IGF1R, EML4-ALK, JAK3, CSF1R, ALK F1196M were amplified respectively by PCR, and were respectively inserted into MSCV-Puro vector (Clontech) with N-terminal TEL fragments and/or NPM fragments and/or TPR fragments; the resultants were stably transfected into mouse BaF3 cells by the means of retrovirus, and the IL-3 growth factors were removed, and eventually the ALK, ALK F1174L, EGFR, EGFR T790M, EGFR delE746_A750, EGFR L858, EGFR T790M/L858R, INSR, IGF1R, EML4-ALK, JAK3, CSF1R, ALK F1196M-transferred protein dependent cell lines were obtained.
as §3

BaF3-TEL-EGFR-T790M = test: Cell growth (Cell Titer-Glo viability), BaF3-TEL-EGFR-T790M; type: cell-based; settings: Mus musculus; BaF3-TEL-EGFR-T790M (EGFR T790M mutant kinase), 72 hrs
Procedure, shortened: as §2

NCI-H3255 = test: Growth of cancer cells (Cell Titer-Glo viability), NCI-H3255; type: cell-based; settings: Homo sapiens; NCI-H3255 (EGFR L858R mutant), 72 hrs
Excerpt: as §4, §3

HCC4006 = test: Growth of cancer cells (Cell Titer-Glo viability), HCC4006; type: cell-based; settings: Homo sapiens; HCC4006 (mutant EGFR del19), 72 hrs
Excerpt: as §4, §3

BaF3-TEL-EGFR = test: Cell growth (Cell Titer-Glo viability), BaF3-TEL-EGFR; type: cell-based; settings: Mus musculus; BaF3-TEL-EGFR (stably expressing EGFR kinase), 72 hrs
Excerpt: as §4, §3

[1] = test system: EGFR protein (wild-type EGFR, A549); test: Effect on signaling pathway in cells, A549; type: cell-based, human; settings: control at 1 μM, 4 h, compared with Compound 1 (little effect)
Excerpt: In four cell lines (all purchased from ATCC) including non-small cell lung cancer cell line A549 (expressing wild-type EGFR gene), non-small cell lung cancer cell line H1975 (expressing EGFR L858R/T790M double mutant gene), non-small cell lung cancer cell line H3255 (expressing EGFR L858R mutant gene) and non-small cell lung cancer cell line PC-9 (expressing EGFR delE746_A750 mutant gene), the effect of Compound 1 on EGFR or other protein kinases related to signaling pathways of EGFR such as Stat3, AKT, ErK, eIF4E, 4EBP1, P70S6K was assessed by assaying a number of cellular biochemical and functional endpoints. […] The effect of Compound 1 on phosphorylation of Stat3Y705, AKT T308, AKT 5473, Erk T202/204, EGFR Y1068, P70S6K Thr389, eIF4E Ser209, Erk T202/204, 4EBP1 (Thr37/46) in these cell lines was assayed (FIGS. 1a to 1d).

BaF3-TEL-INSR = test: Cell growth (Cell Titer-Glo viability), BaF3-TEL-INSR; type: cell-based; settings: Mus musculus; BaF3-TEL-INSR (stably expressing INSR protein), 72 hrs
Excerpt: as §4, §3

BaF3-TEL-ALK-F1196M = test: Cell growth (Cell Titer-Glo viability), BaF3-TEL-ALK-F1196M; type: cell-based; settings: Mus musculus; BaF3-TEL-ALK-F1196M (ALK F1196M mutant kinase), 72 hrs
Excerpt: By testing the effect of the novel kinase inhibitors on the proliferation of cancer cells, the selectivity of the compounds of the present disclosure in inhibiting the proliferation of cancer cells was further assessed. In this example, human non-small cell lung cancer cell NCI-H1975 (expressing EGFR L858R/T790M double mutant gene), human skin squamous carcinoma cell A431 (expressing wild-type EGFR gene), non-small cell lung cancer NCI-H3255 (expressing EGFR L858R mutant gene), non-small cell lung cancer cell NCI-H3122 (expressing ALK gene), human non-small cell lung cancer cell A549 (expressing wild-type EGFR gene), human non-small cell lung cancer cell NCI-H2122 (expressing wild-type EGFR gene), human non-small cell lung cancer cell NCI-H460 (expressing wild-type EGFR gene), human non-small cell lung cancer cell PC-9 (expressing EGFR delE746_A750 mutant gene), Chinese hamster ovary cell CHO (Cricetulus griseus, hamster, Chinese, ovary), Chinese hamster lung cell CHL, human non-small cell lung cancer cell HCC827 (expressing mutant EGFR del19 gene), human lung adenocarcinoma cell HCC4006 (expressing mutant EGFR del19 gene), human non-small cell lung cancer cell NCI-H2228 (expressing wild-type ALK gene), and mouse primary B cell BaF3 were used, and the above cells were all purchased from ATCC (US). […]
as §3

| SMILES | GI50 (PC-9) | GI50 (BaF3-TEL-ALK) | GI50 (NCI-H2122) | GI50 (NCI-H3122) | GI50 (NCI-H1975) | GI50 (NCI-H2228) | GI50 (BaF3-NPM-ALK) | GI50 (BaF3) | also measured |
| --- | --- | --- | --- | --- | --- | --- | --- | --- | --- |
| C=CC(=O)Nc1cc(Nc2ncc(Cl)c(Nc3ccccc3S(=O)(=O)C(C)C)n2)c(OC)cc1N1CCN(C(C)C)CC1 [Compound 11, N-(5-(5-chloro-4-(2-(isopropylsulfonyl)phenylamino)pyrimidin-2-ylamino)-2-(4-isopropylpiperazin-1-yl)-4-methoxyphenyl)acrylamide] | 0.024 µM | < 0.003 µM | 0.19 µM | < 0.0003 µM | 0.025 µM | < 0.003 µM | < 0.0003 µM | 0.45 µM | GI50 (CHL): 1.1 µM; GI50 (CHO): 1.3 µM; GI50 (BaF3-ALK-F1174L): 0.53 µM; GI50 (A549): 0.21 µM; GI50 (BaF3-FL-EGFR-T790M-L858R): 0.002 µM; GI50 (A431): 0.14 µM |
| C=CC(=O)Nc1cccc(Oc2nc(Nc3ccc(N4CCN(C)CC4)cc3OC)ncc2Cl)c1 [WZ4002, reference compound] | 0.027 µM | – | 5.7 µM | 3.2 µM | 0.021 µM | 1.1 µM | 1.4 µM | – | GI50 (HCC827): 0.0012 µM; GI50 (NCI-H460): 8.1 µM; GI50 (BaF3-TEL-EGFR-T790M): 0.046 µM; GI50 (NCI-H3255): 0.39 µM; GI50 (HCC4006): 0.0072 µM; GI50 (BaF3-TEL-EGFR): 1.6 µM; effect on phosphorylation of EGFR protein and of STAT3, S6K, AKT, ERK, eIF4E [1]: behaved similarly |
| C=CC(=O)Nc1cc(Nc2ncc(Br)c(Nc3ccccc3S(=O)(=O)C(C)C)n2)c(OC)cc1N1CCN(CC)CC1 [Compound 83, N-(5-(5-bromo-4-(2-(isopropylsulfonyl)phenylamino)pyrimidin-2-ylamino)-2-(4-ethylpiperazin-1-yl)-4-methoxyphenyl)acrylamide] | 0.058 µM | 0.001 µM | – | 0.002 µM | < 0.0003 µM | – | < 0.0003 µM | 0.38 µM | GI50 (BaF3-TEL-INSR): < 0.0003 µM; GI50 (BaF3-TEL-ALK-F1196M): < 0.0003 µM |
